Assay results published in US20090311344A1, “Dosing Regimen” (priority 2008, published 2009).
Entries after “also recorded” stand apart in the source; their conditions may differ.

How the values were obtained:
platelet count [1] = assay: platelet count in the rat after a single i.v. dose; format: in vivo; conditions: single i.v. dose 30 to 300 μg/kg
Description: (§1) The TPO mimetic peptide compound has an estimated EC50 of approximately 5 pM (0.2 ng/mL) in a human TPO (huTPO) receptor assay in vitro and stimulates megakaryocyte lineage specific growth and differentiation in vivo.

hemoglobin = assay: Multiple dose study in cancer subjects receiving platinum-based chemotherapy: hemoglobin; format: in vivo, human
[2] = test system: HT-29 human colon carcinoma xenografts; assay: HT-29 human colon carcinoma xenografts in athymic nude mice: tumor growth delay; format: in vivo
Excerpt: Administration of the TPO Mimetic Peptide Compound One Hour After Administration of Carboplatin. Effect on activity and toxicity of carboplatin against HT-29 human colon carcinoma xenografts established in athymic nude mice.
Five groups (n=10) of female athymic nude mice (Harlan) bearing established (˜100 mm^3) HT-29 human colon carcinomas on Day 1. Groups 6-9 (n=20) were included for blood sampling and received the same treatment as Groups 1-4, respectively. Treatment effects on the growth of tumors were evaluated by tumor growth delay (TGD), which is the difference between median time to endpoint (TTE) tumor size in a treatment group compared to a control group. The effect of these treatments on platelet and erythrocyte precursors was determined from CBC analysis and reticulocyte counts of blood samples taken on Days 10, 13, 21 and 24.
Xenografts were initiated from HT-29 human colon carcinoma xenografts maintained in athymic nude mice. HT-29 tumor fragments (1 mm^3) were implanted subcutaneously into the right flank of each test mouse, and tumor growth was monitored. On Day 1 of the study, the animals were pair-matched into five groups (Groups 1-5) for evaluation of efficacy and four groups for sampling (Groups 6-9). Groups 1-5 each consisted of ten animals with tumor sizes ranging from 75-126 mm^3 and group mean tumor sizes of 99 mm^3. Groups 6-9 each consisted of twenty animals with tumor sizes ranging from 40-221 mm^3 and group mean tumor sizes of 84 mm^3. Tumor weight was estimated with the assumption that 1 mg is equivalent to 1 mm^3 of tumor volume. Volume was calculated using the formula:
Group 1 mice (n=10) were untreated tumor growth controls. Group 2 mice (n=10) received 60 mg/kg carboplatin administered intraperitoneally (i.p.) on Days 1, 2, 12, and 13. Group 3 mice (n=10) received 0.2 mg/kg of the TPO mimetic peptide compound administered intravenously (i.v.) via tail vein on Days 2 and 13. Groups 4 and 5 received the combination of carboplatin (60 mg/kg i.p. on Days 1, 2, 12, and 13) and 0.2 mg/kg of the TPO mimetic peptide compound on Days 2, 13 and Days 2, 13, 23, respectively, administered intravenously (i.v.) one hour after carboplatin dosing. Groups 6-9 (n=20 each) were included for blood sampling and received the same treatments as Groups 1-4, respectively. For all groups, each dose of drug was given in a volume of 0.2 mL per 20 g of body weight (10 mL/kg), and was scaled to the body weight of each animal.
Tumors were measured twice each week using calipers. Each animal was euthanized when its tumor reached the predetermined endpoint size of 1000 mm^3, or on the final day of the study (Day 62), whichever came first. The time to endpoint (TTE) for each mouse was calculated from the following equation: […]
where b is the intercept and m is the slope of the line obtained by linear regression of a log-transformed tumor growth data set. The data set was comprised of the first observation that exceeded the study endpoint volume and the three consecutive observations that immediately preceded the attainment of the endpoint volume.
Treatment outcome was determined from tumor growth delay (TGD), which is defined as the increase in the median time to endpoint (TTE) in a treatment group compared to the control group:
where: • T=median TTE for a treatment group, • C=median TTE for the control group (Group 1)
Treatment may cause partial regression (PR) or complete regression (CR) of the tumor in an animal. In a PR response, the tumor volume is 50% or less of its Day 1 volume for three consecutive measurements during the course of the study, and equal to or greater than 13.5 mm^3 for one or more of these three measurements. In a CR response, the tumor volume is less than 13.5 mm^3 for three consecutive measurements during the course of the study. An animal with a CR response at the termination of a study is additionally classified as a long-term tumor-free survivor (LTTFS). […]

[3] = test system: chemotherapy-induced thrombocytopenia and anemia; assay: murine models of chemotherapy-induced thrombocytopenia (CIT) and anemia; format: in vivo
Description: as §1

[4] = toxicity / side effects in HT-29 tumor-bearing mice
Description: Animals were weighed daily for the first five days of the study and then twice weekly.
Animals were monitored for adverse treatment-related effects by frequent observation and body-weight (BW) measurements (data not shown).

platelet count [5] = assay: Single dose study in healthy subjects: platelets, megakaryocyte ploidy, progenitor cells; format: in vivo, human
Excerpt: (§2) See, e.g., U.S. patent application Ser. No. 11/354,065, filed Feb. 14, 2006, the entire contents of which are incorporated herein by reference.

[6] = Single dose study in healthy subjects: safety, tolerability, antibodies; format: in vivo, human
Description: as §2
Single i.v. doses of the TPO mimetic peptide compound up to and including 3 μg/kg were well-tolerated in healthy male subjects, with no apparent drug-related effects on adverse events, or cardiovascular or laboratory safety parameters (excluding platelet counts). Antibodies against the TPO mimetic peptide compound were not apparent in any post dose samples.

[7] = addition of up to 3 cycles to carboplatin therapy

Methoxypolyethyleneglycol20000-propionyl-L-Isoleucyl-L-Glutamyl-Glycyl-L-Prolyl-L-Threonyl-L-Leucyl-L-Arginyl-L-Glutaminyl-L-2-Naphthylalanyl-L-Leucyl-L-Alanyl-L-Alanyl-L-Arginyl-Sarcosyl-Ne-(methoxypolyethyleneglycol20000-propionyl-L-Isoleucyl-L-Glutamyl-Glycyl-L-Prolyl-L-Threonyl-L-Leucyl-L-Arginyl-L-Glutaminyl-L-2-Naphthylalanyl-L-Leucyl-L-Alanyl-L-Alanyl-L-Arginyl-Sarcosyl-)-Lysinamide [TPO mimetic peptide compound]
platelet count (platelet count [1]): increased platelet count
time at which platelet count returned to baseline (platelet count [1]): 12 days
time at which the platelet count increase was maximal (platelet count [1]): 6 days
hemoglobin as compared with placebo (hemoglobin; 2.25 and 3 μg/kg doses): trends for preservation of hemoglobin
Change From Baseline in Hemoglobin, Diff of LS Mean (SE) vs Placebo (hemoglobin; Day 42, 1.5 μg/kg): 0.54 (0.63)
Change From Baseline in Hemoglobin, Diff of LS Mean (SE) vs Placebo (hemoglobin; Day 42, 3.0 μg/kg): 1.00 (0.61)
Change From Baseline in Hemoglobin, LS Mean (SE) (hemoglobin; Day 42, 3.0 μg/kg): −1.16 (0.47)
Change From Baseline in Hemoglobin, Diff of LS Mean (SE) vs Placebo (hemoglobin; Day 63, 1.5 μg/kg): −0.75 (0.90)
Change From Baseline in Hemoglobin, LS Mean (SE) (hemoglobin; Day 63, 1.5 μg/kg): −2.98 (0.70)
Change From Baseline in Hemoglobin, Diff of LS Mean (SE) vs Placebo (hemoglobin; Day 63, 2.25 μg/kg): 0.68 (0.83)
Change From Baseline in Hemoglobin, LS Mean (SE) (hemoglobin; Day 63, 2.25 μg/kg): −1.55 (0.61)
Change From Baseline in Hemoglobin, Diff of LS Mean (SE) vs Placebo (hemoglobin; Day 63, 3.0 μg/kg): 0.79 (0.83)
Change From Baseline in Hemoglobin, LS Mean (SE) (hemoglobin; Day 63, 3.0 μg/kg): −1.44 (0.61)
Change From Baseline in Hemoglobin, Diff of LS Mean (SE) vs Placebo (hemoglobin; Day 84, 1.5 μg/kg): 0.05 (0.73)
Change From Baseline in Hemoglobin, LS Mean (SE) (hemoglobin; Day 84, 1.5 μg/kg): −1.88 (0.55)
Change From Baseline in Hemoglobin, Diff of LS Mean (SE) vs Placebo (hemoglobin; Day 84, 2.25 μg/kg): 0.37 (0.77)
Change From Baseline in Hemoglobin, LS Mean (SE) (hemoglobin; Day 84, 2.25 μg/kg): −1.56 (0.61)
Change From Baseline in Hemoglobin, Diff of LS Mean (SE) vs Placebo (hemoglobin; Day 84, 3.0 μg/kg): 1.57 (0.77)
Change From Baseline in Hemoglobin, LS Mean (SE) (hemoglobin; Day 84, 3.0 μg/kg): −0.36 (0.61)
change in hemoglobin levels from baseline to the end of Cycle 2 (Day 42) and beyond (hemoglobin; preliminary evaluation): dose-related trend for preservation of hemoglobin
TGD (tumor growth delay) ([2]; Groups 2-4, relative to untreated Group 1, carboplatin 60 mg/kg i.p. Days 1, 2, 12, 13, TPO mimetic peptide compound 0.2 mg/kg i.v. Days 2, 13): 8.1 days
% Tumor Growth Delay ([2]; HT-29 xenografts, athymic nude mice, n=10, carboplatin 60 mg/kg i.p. Days 1, 2, 12, 13, TPO mimetic peptide compound 0.2 mg/kg i.v. Days 2, 13, Groups 2-4, vs untreated Group 1): 33%
Median TTE ([2]; HT-29 xenografts, athymic nude mice, n=10, carboplatin 60 mg/kg i.p. Days 1, 2, 12, 13, TPO mimetic peptide compound 0.2 mg/kg i.v. Days 2, 13, Groups 2-4, endpoint 1000 mm^3): 32.9 days
effect on tumor growth ([2]; TPO mimetic peptide compound administration alone): did not enhance tumor growth
impact on tumor growth delay [2, 7]: no negative impact on tumor growth delay
survival compared with carboplatin treatment alone [2, 7]: small increase in survival; also recorded: small advantage in survival
effect of administration time relative to chemotherapy ([3]; 1 hour after chemotherapy compared with dosing after 24 or 96 hours): more effective
doses at which the anti-anemic effect was observed ([3]; following carboplatin treatment): ≥ 0.03 mg/kg
chemotherapy-induced reduction in Hb, hematocrit and RBC count ([3]; mouse, in vivo): prevented
fibrinogen-positive microangiopathic lesions in small blood vessels in the brain ([3]; mouse, in vivo): marked reduction
minimum effective dose ([3]; murine models of CIT, single dose, Day 12): 0.1 mg/kg
myeloprotective effect in murine models of CIT ([3]; single dose, Day 12): reducing the severity and duration of CIT in a dose-dependent manner
large spleens in necropsied animals ([4]; Group 3): ⅖
mean BW losses ([4]; monotherapy (Group 3)): no mean BW losses
tolerability ([4]; monotherapy (Group 3), 0.2 mg/kg i.v. Days 2, 13): well tolerated
mean platelet count (platelet count [5]; healthy male subjects, single i.v. administration): dose-dependently increased; also recorded: dose dependent, nonlinear increase
elevated platelet counts, increase from baseline (platelet count [5]; healthy subjects, 3.0 μg/kg dose): ≥ 3 fold
mean number of CD62P+ platelets (platelet count [5]; healthy subjects, 2 highest doses): appeared to increase
mean megakaryocyte ploidy (platelet count [5]; healthy subjects, doses of 1.5 μg/kg and above): increased compared with placebo
mean numbers of hematopoietic progenitor cells (BFU-E and peripheral CD34+ cells) (platelet count [5]; healthy subjects, highest dose): increased compared with placebo; also recorded: increased mean numbers of hematopoietic progenitor cells
safety and tolerability ([6]; healthy male subjects, single i.v. doses 0.375 to 3 μg/kg): safe and generally well tolerated
antibodies against the TPO mimetic peptide compound ([6]; healthy subjects, post dose samples): not apparent; also recorded: no evidence of antibody formation
